Results as given in patent US20090176714A1, “METHOD OF REDUCING THE EFFECTS OF ABeta AND COMPOSITIONS THEREFORE” (priority 2004, published 2009).
No end group written: not given here.

Key:
[1] = tested on: hippocampal slice cultures; test: Aβ-induced cell death (EthD-1/calcein AM, % Death) in organotypic hippocampal slice cultures; type: cell-based, mouse
Experimental: Pups from C57B6/SJL mice were anaesthetized and decapitated at postnatal day 15. The brain was removed and placed in ice-cold dissecting medium (50% Minimum Essential Medium (Invitrogen, Carlsbad, Calif.), 50% Hank's Balanced Salt Solution (Invitrogen), 25 mM HEPES, and 36 mM glucose). Both hippocampi were dissected under a dissecting microscope and cut at 400 μm on a McIlwain tissue chopper. Slices were separated and placed on filter inserts with a 30 mm diameter and a 0.4 μm filter pore size (Millipore, Billerica, Mass.) held in 6-well culture plates. For the first 3 days, slices were kept in Neurobasal media with B-27 supplement, 1 mM glutamine, and 1% penicillin/streptomycin (Invitrogen). Subsequently, the media was changed every 3 days using media without antibiotics. Organotypic cultures were maintained in a humidified incubator at 37° C. in 5% O2 and 5% CO2 for 14 to 21 days.
(§1) Cell death and viability was determined on live slices using the fluorescent probes from Molecular Probes' Live/Dead Kit. After a 40 minute incubation in calcein AM (1:400) and ethidium homodimer (1:1000) in phosphate buffered saline, slices were visualized at 200× magnification with an inverted Nikon Diaphot 200 microscope using the Bio-Rad MRC-1024 Laser Scanning Confocal system (Hercules, Calif.). Random images of the neuronal fields were captured at the emission spectrum of each probe, and Scion Image software (Frederick, Md.) was used to quantify the number of live and dead cells. At least three areas including a neuronal field were imaged and used to determine the percent death for each slice. The percent death was calculated as the number of EthD-1 positive cells divided by the total number of EthD-1 and calcein AM positive cells.
β-amyloid1-42 and reverse Aβ (Aβ42-1) were obtained from BACHEM (Torrance, Calif.). These polypeptides were dissolved in 0.1% NH3OH at 222 μM. For treatments, Aβ was aggregated at 50 μM in Neurobasal media with B-27 supplement and 1 mM glutamine at 37° C. for 24 hours. Then, the slice culture media was removed, and the slices were treated with 1 mL of 25 μM or 50 μM Aβ, reverse Aβ, or vehicle for 24 hours. Human TTR (Calbiochem) or IGF-2 (Peprotech, Rocky Hill, N.J.) was added to slices together with the Aβ treatment at final concentrations of 3 μM (TTR) or 500 nM (IGF-2). sAPPα was prepared as described previously (Mattson et al., Neuron, 10:243-254 (1993)).
Unless otherwise stated, all sAPPα treatments were performed at 1 nM 48 hours prior to the addition of Aβ. Antibodies against TTR (C-20) or IGF-2 (F-20; 4 μg/mL; Santa Cruz) or sAPPα (6E10; 10 μg/mL; Chemicon) were added to slices together with the sAPPα treatment. Goat IgG (4 μg/mL; Santa Cruz) or mouse IgG1 (10 μg/mL; Chemicon) was added as a control. The 10 amino acid fragment of the carboxyl-terminal region of sAPPα (592-601 of APP695; SEVKMDAEFR; SEQ ID NO:1; Sigma) was added according to the same protocol for sAPPα.
SiRNA's were created based on the mouse mRNA sequences using the Ambion Silencer siRNA Construction Kit (Austin, Tex.). Several siRNA's were created by in vitro transcription for each silenced gene. Transfection was performed for 4 hours at 37° C. prior to vehicle or sAPPα treatment using 25 nM siRNA combined with the polyamines in the Ambion siPORT Amine Transfection Agent. Transfections were performed in Neurobasal media with 1 mM glutamine (Invitrogen). The successful mRNA target sequences are as follows, TTR: 5′-[…]-3′ (SEQ ID NO:16) and 5′-[…]-3′ (SEQ ID NO:17); IGF-2: 5′-AA-GGGGATAGAGATGTGAGAG-3′ (SEQ ID NO:18) and 5′-AAATTATGTGGT-AATTCTGCA-3′ (SEQ ID NO:19); IGF-1R: 5′-[…]-3′ (SEQ ID NO:20) and 5′-[…]-3′ (SEQ ID NO:21).
β-amyloid1-42 and reverse Aβ (Aβ42-1) were obtained from BACHEM (Torrance, Calif.). These peptides were dissolved in 0.1% NH3OH at 222 μM. For treatments, Aβ was aggregated at 50 μM in Neurobasal media with B-27 supplement and 1 mM glutamine at 37° C. for 24 hours. […]

human cortical slices = test: Aβ-induced cell death (EthD-1/calcein AM) in human organotypic cortical cultures; type: cell-based; conditions: for Protection against the Aβ-induced EthD-1 staining: FIG. 6C
Excerpt: Four patients with intractable epilepsy who had elected to undergo a temporal lobe resection were recruited for this study. […] However, the overlying temporal cortex is normal. The age of the subjects ranged from 20 to 49. Brain tissue was obtained with informed consent from all patients.
Brain tissue was removed in large, intact pieces by electrocautery. Tissue obtained from the temporal cortex was approximately 3 cm×2 cm×1.5-2 cm. Immediately following removal, the tissue was placed in ice-cold Neuregen-I media (Brainbits, Springfield, Ill.), a CO2 independent transport and holding medium, and transported to a tissue culture laboratory. Meninges were removed before cutting the tissue with a scalpel to produce blocks about 0.5-1 cm^3 such that each gyrus was kept as intact as possible and the cortical layers were preserved. As described previously, incisions were made perpendicular to the longitudinal axis of the gyrus and along the white matter (Verwer et al., Exp. Gerontol., 38:167-172 (2003)). A vibratome was used to cut 400 μm thick slices at a plane perpendicular to the longitudinal axis of the gyrus. Thus, all cortical layers and a small amount of white matter were included in a slice. Alternately, small tissue pieces, which were usually obtained from the hippocampus, were cut at 400 μm using a McIlwain tissue chopper. No more than 2 slices were placed on a filter insert with a 30 mm diameter and a 0.4 μm filter pore size (Millipore, Billerica, Mass.) held in 6-well culture plates. For the first 12 hours, slices were kept in 1-1.2 mL Neurobasal media with B-27 supplement, 0.5 mM glutamine, and 1% penicillin/streptomycin (Invitrogen). Subsequently, the media was changed every 2 days using 1 mL of media without antibiotics. Organotypic cultures were maintained in a humidified incubator at 37° C. in 5% O2, 5% CO2, and 90% N for 4 to 28 days.
as §1, with “images” for “images of the neuronal fields”, “areas” for “areas including a neuronal field”
β-amyloid1-42 and reverse Aβ (Aβ42-1) were obtained from BACHEM (Torrance, Calif.). These peptides were dissolved in 0.1% NH3OH at 222 μM. For treatments, Aβ or reverse Aβ was aggregated at 50 μM in Neurobasal media with B-27 supplement and 0.5 mM glutamine at 37° C. for 24 hours. Then, the slice culture media was removed, and the slices were treated with 1 mL of 25 μM or 50 μM Aβ, reverse Aβ, or vehicle for 24 hour. Human TTR (Calbiochem) was added to slices together with the Aβ treatment at final concentrations of 0.03, 0.3, and 3 μM TTR. sAPPα was obtained from Sigma (St. Louis, Mo.). Unless otherwise stated, all sAPPα treatments were performed at 1 nM 48 hours prior to the addition of Aβ. The 10 amino acid fragment of the carboxyl-terminal region of sAPPα (592-601 of APP695; SEVKMDAEFR was added according to the same protocol for sAPPα. Because a variable amount of tissue was obtained from each patient, not all treatments were performed on all patients.

[2] = 48 h prior to 25 μM Aβ (24 h), FIG. 12B, 1 nM, final concentration of 1 mM
[3] = 1 nM 48 hours prior to 25 μM Aβ (24 hours), FIG. 7
[4] = 1 nM 48 h prior to 25 μM Aβ (24 h), FIG. 12A

Substance | Protection against Aβ-induced death (% Death) [1, 2] | Protection against Aβ-induced death (% Death) [1, 3] | also measured
(dD)AEF | do not significantly protect | – | –
D(dA)EF | do not significantly protect | – | –
DAE(dF) | do not significantly protect | – | –
EADF-amide (EADF-NH2) [EADF (SEQ ID NO:5)-amide, aspartic acid and glutamic acid switched and an amide group attached to the COOH-terminus] | significantly protects | – | –
EVKMDAEFR [fragment with the serine eliminated] | – | significantly protected | –
R(9)-DAEF (RRRRRRRRRDAEF) [9 arginines added to the NH2-terminal end of the tetrapeptide] | – | – | Protection against Aβ-induced death (% Death) [1, 4]: significantly protected
SEVKMDAE [fragment with both arginine and phenylalanine eliminated] | – | reversed the protection | –
SEVKMDAEF [10 amino acid fragment with the carboxyl arginine eliminated] | – | protection was maintained | –
VKMDAEFR [fragment with the serine and glutamic acid eliminated] | – | significantly protected | –
acetyl-DAEF (Ac-DAEF) [DAEF with the NH2-terminal end acetylated] | – | – | Protection against Aβ-induced death (% Death) [1, 4]: did not protect to the same degree as the unmodified tetrapeptide; Protection against Aβ-induced death (% Death) ([1]; 1 nM 48 h prior to 25 μM Aβ (24 h), FIG. 12A, listed as Acetylated DAEF): significant protection
acetyl-EADF (Ac-EADF) | does not | – | –
insulin-like growth factor 2 [IGF-2] | – | – | Protection against Aβ-induced death (% Death) ([1]; 500 nM added together with Aβ, FIG. 4A): partially protected
transthyretin [TTR] | – | – | Protection against the Aβ-induced EthD-1 staining (human cortical slices; co-treatment with 0.03 μM): not; Protection against the Aβ-induced EthD-1 staining (human cortical slices; co-treatment with 0.3 μM): protected; Protection against the Aβ-induced EthD-1 staining (human cortical slices; co-treatment with 3 μM): protected; Concentrations that protect against Aβ toxicity (human cortical slices; human cortical slices, co-treatment with Aβ): ≥ 0.3 µM; Protection against Aβ-induced death (% Death) ([1]; 3 μM added together with Aβ, FIG. 4A): completely protected
